Data published in patent EP3928775A1, “USE OF ANTI[…] FOR TREATING THE COVID-19 DISEASE” (priority 2020, dated 2021).
Like-named read-outs stand apart in the source and are kept apart here.

Assays:
Covid-19 = assay type: in vivo, human
SARS-CoV-2 = conditions: in-vitro study, reference 11; cited from earlier work
[1] = Patients admitted to the hospital with Covid-19, exposed vs not exposed

Row | Compound | risk of intubation or death (in words) (Covid-19; [1]) | antiviral effects on SARS-CoV-2 (SARS-CoV-2) | risk of intubation or death (in words) (Covid-19; in vivo)
1 | CN(C)CCC[C@@]1(c2ccc(F)cc2)OCc2cc(C#N)ccc21 [Escitalopram] | significantly and substantially reduced | has not be observed | –
2 | COc1ccc(C(CN(C)C)C2(O)CCCCC2)cc1 (stereo not drawn) [Venlafaxine] | significantly and substantially reduced | – | –
3 | Fc1ccc([C@@H]2CCNC[C@H]2COc2ccc3c(c2)OCO3)cc1 [Paroxetine] | – | has not be observed | –
4 | CNCCC(Oc1ccc(C(F)(F)F)cc1)c1ccccc1 (stereo not drawn) [Fluoxetine] | – | antiviral effects | significantly and substantially reduced
